# Literature values, collected in US20250114375A1, “PHARMACEUTICAL COMPOSITION OF LIFITEGRAST AND LOTEPREDNOL ETABONATE” (ORBICULAR PHARMACEUTICAL TECHNOLOGIES PRIVATE LIMITED, priority 2022, published 2025).
# What was measured:
# glucocorticoid receptors = target: T1, glucocorticoid receptors (Homo sapiens, UniProt P04150); settings: inactive carboxylic acid metabolite of loteprednol etabonate
# T1 sequence (P04150 1-777): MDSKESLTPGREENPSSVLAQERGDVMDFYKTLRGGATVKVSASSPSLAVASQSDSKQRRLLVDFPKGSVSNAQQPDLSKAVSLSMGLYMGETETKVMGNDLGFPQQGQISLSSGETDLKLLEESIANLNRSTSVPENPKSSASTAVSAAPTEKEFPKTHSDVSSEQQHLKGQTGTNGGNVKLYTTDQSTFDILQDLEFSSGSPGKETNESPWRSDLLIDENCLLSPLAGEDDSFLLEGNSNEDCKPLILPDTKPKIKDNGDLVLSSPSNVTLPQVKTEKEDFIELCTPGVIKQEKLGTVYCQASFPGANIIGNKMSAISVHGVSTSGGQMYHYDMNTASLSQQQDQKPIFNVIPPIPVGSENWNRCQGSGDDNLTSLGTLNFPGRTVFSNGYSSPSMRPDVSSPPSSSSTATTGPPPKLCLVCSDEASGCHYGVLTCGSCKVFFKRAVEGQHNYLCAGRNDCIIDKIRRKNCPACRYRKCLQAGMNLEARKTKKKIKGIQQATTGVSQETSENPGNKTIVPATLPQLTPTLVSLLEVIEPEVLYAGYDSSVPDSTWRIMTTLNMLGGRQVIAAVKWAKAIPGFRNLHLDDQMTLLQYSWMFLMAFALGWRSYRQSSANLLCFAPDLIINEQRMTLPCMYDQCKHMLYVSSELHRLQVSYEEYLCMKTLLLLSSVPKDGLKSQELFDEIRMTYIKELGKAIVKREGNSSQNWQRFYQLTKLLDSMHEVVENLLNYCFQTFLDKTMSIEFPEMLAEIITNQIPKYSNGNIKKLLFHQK
# [1] = tested on: conjunctival goblet cells; settings: in vivo
Structure (SMILES),binding to glucocorticoid receptors (glucocorticoid receptors),increase of goblet cell area [1],increase of the number of conjunctival goblet cells [1]
CCOC(=O)OC1(C(=O)O)CCC2C3CCC4=CC(=O)C=CC4(C)C3C(O)CC21C (stereo not drawn) [PJ-91],does not bind,,
CS(=O)(=O)c1cccc(C[C@H](NC(=O)c2c(Cl)cc3c(c2Cl)CCN(C(=O)c2ccc4ccoc4c2)C3)C(=O)O)c1 [Lifitegrast],,22%,39%
